Data published in patent publication US9290453B2 (Merck Sharp & Dohme Corp., priority 2010, dated 2016).

Molecular target: T1, hCRTH2 (Homo sapiens, UniProt Q9Y5Y4)
T1 construct: expressed in transfected cells; host or cells: HEK (human embryonic kidney) cells expressing hCRTH2
T1 sequence (Q9Y5Y4 1-395): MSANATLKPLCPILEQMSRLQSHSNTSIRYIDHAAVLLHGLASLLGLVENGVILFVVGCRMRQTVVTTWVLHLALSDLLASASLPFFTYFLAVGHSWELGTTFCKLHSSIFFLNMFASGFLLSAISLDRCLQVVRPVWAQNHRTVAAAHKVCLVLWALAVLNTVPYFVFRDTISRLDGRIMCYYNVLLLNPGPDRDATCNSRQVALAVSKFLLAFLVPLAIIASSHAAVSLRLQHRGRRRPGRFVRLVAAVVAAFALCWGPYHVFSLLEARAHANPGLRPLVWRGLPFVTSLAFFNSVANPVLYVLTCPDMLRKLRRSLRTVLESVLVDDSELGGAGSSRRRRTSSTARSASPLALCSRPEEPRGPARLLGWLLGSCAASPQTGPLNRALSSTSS
Assay: Radioligand Binding Assay A ([3H]PGD2 filtration binding, HEK-hCRTH2 membranes)
Procedure: Radioligand binding assays were performed at room temperature in 50 mM Tris-HCl pH 7.4, 1 mM EDTA containing 2 mM MnCl2 and 3.0 nM [^3H]PGD2 (New England Nuclear, Boston, Mass.) (171 Ci mmol^−1), in a final volume of 0.2 ml. Competing ligands were diluted in dimethylsulfoxide (Me2SO) that was kept constant at 1% (v/v) of the final incubation volume. The reaction was initiated by the addition of 8-20 μg of membrane protein prepared from a human embryonic kidney (HEK)-hCRTH2 cell line. Total and non-specific binding were determined in the absence and the presence of 10 μM PGD2, respectively. Under these conditions, specific binding (total minus non-specific) of the radioligand to the receptor reached equilibrium within 50 min and was stable up to 180 min. The reaction was routinely conducted for 60 min at room temperature and terminated by rapid filtration through prewetted (0.3% polyethyleneimine) 96-well printed Filtermate™ (Wallac) using a Tomtec® harvester (Hamden, Conn.). After washing with cold buffer, the filter was dried for 2 minutes in microwave, and Meltilex Scintillator sheet (Wallac) was melted on for 2 min. The radioactivity was measured with Betaplate model 1205 (Wallac).

| Compound | Ki (Table A, rated A-D) [nM] | Ki (values in text) [nM] |
| --- | --- | --- |
| C[C@@H](NC(=O)c1ccc2nc(-c3ccc(F)cc3)c(CCCCC(=O)O)cc2c1)c1ccc(Cl)cc1 [Compound 5, 6-[[[1(R)-(4-chlorophenyl)ethyl]amino]carbonyl]-2-(4-fluorophenyl)-3-quinolinepentanoic acid] | 2.1 to 20 | – |
| O=C(O)CCCCc1cc2cc(C(=O)Nc3cc4ccccc4[nH]3)ccc2nc1-c1ccccc1 [Compound 1AB, 6-[(1H-indol-2-ylamino)carbonyl]-2-phenyl-3-quinolinepentanoic acid] | 2.1 to 20 | – |
| O=C(O)CCCCc1cc2cc(C(=O)N[C@H]3CCCc4ccccc43)ccc2nc1-c1ccccc1 [Compound 1P, 2-phenyl-6-[[(1,2,3,4-tetrahydro-1(S)-naphthalenyl)amino]carbonyl]-3-quinolinepentanoic acid] | 2.1 to 20 | – |
| O=C(O)CCCCc1cc2cc(C(=O)N[C@H](c3ccccc3)C(F)(F)F)ccc2nc1-c1ccccc1 [Compound 1H, 2-phenyl-6-[[(2,2,2-trifluoro-1(R)-phenylethyl)amino]carbonyl]-3-quinolinepentanoic acid] | 2.1 to 20 | – |
| O=C(O)CCCCc1cc2cc(C(=O)N[C@@H]3CCCc4ccccc43)ccc2nc1-c1ccccc1 [Compound 1o, 2-phenyl-6-[[(1,2,3,4-tetrahydro-1(R)-naphthalenyl)amino]carbonyl]-3-quinolinepentanoic acid] | 2.1 to 20 | – |
| C[C@H](NC(=O)c1ccc2nc(-c3ccccc3)c(CCCCC(=O)O)cc2c1)c1ccccc1 [Compound 1T, 2-phenyl-6-[[(l(S)-phenylethyl)amino]carbonyl]-3-quinolinepentanoic acid] | 2.1 to 20 | – |
| O=C(O)CCCCc1cc2cc(C(=O)N3CCC(c4ccccc4)CC3)ccc2nc1-c1ccccc1 [Compound 1R, 2-phenyl-6-[(4-phenyl-1-piperidinyl)carbonyl]-3-quinolinepentanoic acid] | 0.1 to 2 | 1.8 |
| O=C(O)CCCCc1cc2cc(C(=O)N3CCC[C@@H](c4ccccc4)C3)ccc2nc1-c1ccccc1 [Compound 1K, 2-phenyl-6-[(3(S)-phenyl-1-piperidinyl)carbonyl]-3-quinolinepentanoic acid] | 2.1 to 20 | – |
| O=C(O)CCCCc1cc2cc(C(=O)N[C@H](c3ccc(Cl)cc3)C(F)(F)F)ccc2nc1-c1ccccc1 [Compound 1AF, 6-[[[1(R)-(4-chlorophenyl)-2,2,2-trifluoroethyl]amino]carbonyl]-2-phenyl-3-quinolinepentanoic acid] | 2.1 to 20 | – |
| CC(NC(=O)c1ccc2nc(-c3ccccc3)c(CCCCC(=O)O)cc2c1)c1ccncc1 (centres unmarked) [Compound 1W, 2-phenyl-6-[[[1-(4-pyridinyl)ethyl]amino]carbonyl]-3-quinolinepentanoic acid] | 20.1 to 200 | – |
| O=C(O)CCCCc1nc2cc(C(=O)NCc3ccc(OC(F)(F)F)cc3)ccc2cc1-c1ccccc1 [Compound 3, 5-(3-phenyl-7-(4-(trifluoromethoxy)benzylcarbamoyl)quinolin-2-yl)pentanoic acid] | 2.1 to 20 | – |
| C[C@@H](NC(=O)c1ccc2nc(-c3ccccc3)c(CCCCC(=O)O)cc2c1)c1ccc(Cl)cc1 [Compound 1AD, 6-[[[1(R)-(4-chlorophenyl)ethyl]amino]carbonyl]-2-phenyl-3-quinolinepentanoic acid] | 2.1 to 20 | 3.5 |
| Cc1ccc(CNC(=O)c2ccc3nc(-c4ccccc4)c(CCCCC(=O)O)cc3c2)cc1 [Compound 1E, 6-[[[(4-methylphenyl)methyl]amino]carbonyl]-2-phenyl-3-quinolinepentanoic acid] | 2.1 to 20 | 4.4 |

Second part, the compound after the results:

| Ki (Table A, rated A-D) [nM] | Ki (values in text) [nM] | Compound |
| --- | --- | --- |
| 2.1 to 20 | – | C[C@@H](CNC(=O)c1ccc2nc(-c3ccc(F)cc3)c(CCCCC(=O)O)cc2c1)c1ccccc1 [Compound 5AB, (R)-5-(2-(4-fluorophenyl)-6-((2-phenylpropyl)carbamoyl)quinolin-3-yl)pentanoic acid] |
| 20.1 to 200 | – | C[C@H](NC(=O)c1cnc2nc(-c3ccc(F)cc3)c(CCCCC(=O)O)cc2c1)c1ccc(F)cc1 [Compound 6K, 2-(4-fluorophenyl)-6-[[[1(S)-(4-fluorophenyl)ethyl]amino]carbonyl]-1,8-naphthyridine-3-pentanoic acid] |
| 2.1 to 20 | 2.6 | O=C(O)CCCCc1cc2cc(C(=O)N[C@@H]3CCCc4ccccc43)ccc2nc1-c1ccc(F)cc1 [Compound 5G, 2-(4-fluorophenyl)-6-[[(1,2,3,4-tetrahydro-1(R)-naphthalenyl)amino]carbonyl]-3-quinolinepentanoic acid] |
| 20.1 to 200 | – | COc1ccc([C@H](NC(=O)c2cnc3nc(-c4ccc(F)cc4)c(CCCCC(=O)O)cc3c2)C(F)(F)F)cc1 [Compound 6P, 2-(4-fluorophenyl)-6-[[[2,2,2-trifluoro-1(S)-(4-methoxyphenyl)ethyl]amino]carbonyl]-1,8-naphthyridine-3-pentanoic acid] |
| 2.1 to 20 | – | Cc1cccc(CNC(=O)c2ccc3nc(-c4ccccc4)c(CCCCC(=O)O)cc3c2)c1 [Compound 2A, 6-[[[(3-methylphenyl)methyl]amino]carbonyl]-2-phenyl-3-quinolinepentanoic acid] |
| 2.1 to 20 | – | O=C(O)CCCCc1cc2cc(C(=O)N[C@H]3CCc4ccc(F)cc43)ccc2nc1-c1ccc(F)cc1 [Compound 5L, 6-[[(6-fluoro-2,3-dihydro-1H-inden-1(S)-yl)amino]carbonyl]-2-(4-fluorophenyl)-3-quinolinepentanoic acid] |
| 2.1 to 20 | – | O=C(O)CCCCc1cc2cc(C(=O)N[C@@H]3CCCc4ccc(F)cc43)ccc2nc1-c1ccc(F)cc1 [Compound 5H, 2-(4-fluorophenyl)-6-[[(7-fluoro-1,2,3,4-tetrahydro-1(R)-naphthalenyl)amino]carbonyl]-3-quinolinepentanoic acid] |
| 0.1 to 2 | – | O=C(O)CCCCc1nc2cc(C(=O)N3CC(c4ccccc4)C3)ccc2cc1-c1ccccc1 [Compound 3L, 3-phenyl-7-[(3-phenyl-1-azetidinyl)carbonyl]-2-quinolinepentanoic acid] |
| 2.1 to 20 | 13.6 | O=C(O)CCCCc1cc2cc(C(=O)N[C@@H]3CCc4ccc(F)cc43)ccc2nc1-c1ccc(F)cc1 [Compound 5F, 6-[[(6-fluoro-2,3-dihydro-1H-inden-1(R)-yl)amino]carbonyl]-2-(4-fluorophenyl)-3-quinolinepentanoic acid] |
| 2.1 to 20 | – | O=C(O)CCCCc1cc2cc(C(=O)N[C@@H]3CCCc4cc(Cl)ccc43)ccc2nc1-c1ccc(F)cc1 [Compound 5P, 6-[[(6-chloro-1,2,3,4-tetrahydro-1(R)-naphthalenyl)amino]carbonyl]-2-(4-fluorophenyl)-3-quinolinepentanoic acid] |
| 2.1 to 20 | – | O=C(O)CCCCc1nc2cc(C(=O)N3CCC(c4ccccc4)CC3)ccc2cc1-c1ccccc1 [Compound 3E, 3-phenyl-7-[(4-phenyl-1-piperidinyl)carbonyl]-2-quinolinepentanoic acid] |
| 20.1 to 200 | 25.5 | O=C(O)CCCCc1cc2cc(C(=O)N[C@H]3CCCc4ccc(F)cc43)ccc2nc1-c1ccc(F)cc1 [Compound 5N, 2-(4-fluorophenyl)-6-[[(7-fluoro-1,2,3,4-tetrahydro-1(S)-naphthalenyl)amino]carbonyl]-3-quinolinepentanoic acid] |
| 2.1 to 20 | – | O=C(O)CCCCc1cc2cc(C(=O)NCc3ccc(F)cc3)ccc2nc1-c1ccccc1 [Compound 2C, 6-[[[(4-fluorophenyl)methyl]amino]carbonyl]-2-phenyl-3-quinolinepentanoic acid] |
